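Each compound was tested at five concentrations against cells in 96-well plates for 48 hours. GI50 marks 50% less growth.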 Calls of active or inactive are those of the source. Cut-off read from the data, not from the text of the source: active = GI50 up to about 1.1 µM and inactive = higher.
Columns and labels:
Assay in all cases: NCI anticancer screen, dose series, 48 h
[1] = tested on: SNB-75
[2] = tested on: BT-549
[3] = tested on: COLO 205
[4] = tested on: MCF7
[5] = tested on: OVCAR-4
[6] = tested on: SR
[7] = tested on: OVCAR-3
[8] = tested on: HCT-116
[9] = tested on: HL-60
[10] = tested on: KM12
[11] = tested on: NCI-H460
[12] = tested on: RPMI-8226
[13] = tested on: UACC-62
[14] = tested on: EKVX
[15] = tested on: Hs-578T
[16] = tested on: OVCAR-8
[17] = tested on: LOX IMVI
[18] = tested on: M14
[19] = tested on: T47D

CCOc1cc2c(cc1O)CC[C@@H]1[C@@H]2CC[C@]2(C)[C@@H](O)CC[C@@H]12
GI50 [1]: 0.0168 µM (active) | GI50 [2]: 0.0125 µM (active) | GI50 [3]: 12.7 µM (inactive) | GI50 [4]: 0.0287 µM (active) | GI50 [5]: 12.4 µM (inactive) | GI50 [6]: < 0.0192 µM (active) | GI50 [7]: 0.0184 µM (active) | GI50 [8]: 0.0234 µM (active) | GI50 [9]: 0.014 µM (active) | GI50 [10]: 1.22 µM (inactive) | GI50 [11]: 0.0228 µM (active) | GI50 [12]: 0.0252 µM (active) | GI50 [13]: 0.019 µM (active) | GI50 [14]: 0.497 µM (active) | GI50 [15]: 0.0306 µM (active) | GI50 [16]: 0.109 µM (active) | GI50 [17]: 0.0179 µM (active) | GI50 [18]: 0.0261 µM (active)

NC(=O)c1nnsc1NC=O
GI50 [1]: > 100 µM (inactive) | GI50 [3]: > 100 µM (inactive) | GI50 [4]: > 100 µM (inactive) | GI50 [6]: > 100 µM (inactive) | GI50 [8]: > 100 µM (inactive) | GI50 [9]: > 100 µM (inactive) | GI50 [10]: > 100 µM (inactive) | GI50 [11]: > 100 µM (inactive) | GI50 [19]: > 100 µM (inactive) | GI50 [12]: > 100 µM (inactive) | GI50 [13]: > 100 µM (inactive) | GI50 [14]: > 100 µM (inactive) | GI50 [15]: > 100 µM (inactive) | GI50 [16]: > 100 µM (inactive) | GI50 [17]: > 100 µM (inactive) | GI50 [18]: > 100 µM (inactive)

CCN1C(=O)C(=C/C=C/c2ccc(N(CC)CC)cc2)C(=O)N(CC)C1=S
GI50 [2]: 40.7 µM (inactive) | GI50 [3]: > 100 µM (inactive) | GI50 [4]: > 100 µM (inactive) | GI50 [5]: > 100 µM (inactive) | GI50 [7]: 18 µM (inactive) | GI50 [8]: > 100 µM (inactive) | GI50 [9]: 23.6 µM (inactive) | GI50 [10]: > 100 µM (inactive) | GI50 [11]: > 100 µM (inactive) | GI50 [19]: > 100 µM (inactive) | GI50 [12]: > 100 µM (inactive) | GI50 [13]: 87.5 µM (inactive) | GI50 [14]: > 100 µM (inactive) | GI50 [15]: > 100 µM (inactive) | GI50 [16]: > 100 µM (inactive) | GI50 [17]: > 100 µM (inactive) | GI50 [18]: > 100 µM (inactive)

CCOC(=O)N1CCC2(CC1)C[C@@](C(C)=O)(c1ccccc1)C(C)O2 (some centres not stated)
GI50 [1]: 80.7 µM (inactive) | GI50 [3]: > 100 µM (inactive) | GI50 [4]: > 100 µM (inactive) | GI50 [5]: > 100 µM (inactive) | GI50 [7]: > 100 µM (inactive) | GI50 [9]: > 100 µM (inactive) | GI50 [10]: > 100 µM (inactive) | GI50 [11]: > 100 µM (inactive) | GI50 [19]: 17 µM (inactive) | GI50 [12]: > 100 µM (inactive) | GI50 [13]: 56 µM (inactive) | GI50 [14]: > 100 µM (inactive) | GI50 [15]: > 100 µM (inactive) | GI50 [16]: > 100 µM (inactive) | GI50 [17]: > 100 µM (inactive) | GI50 [18]: > 100 µM (inactive)
